Measurements as given in US11896579B2, “Combination drug” (Chugai Seiyaku Kabushiki Kaisha, priority 2015, dated 2024).

Tested on: human non-small cell lung cancer cell line NCI-H2228 which is positive for the ALK fusion gene
Assay: NCI-H2228 xenograft tumor volume in SCID mice
Assay type: in vivo
Settings: SCID mice with NCI-H2228 transplant; agent alone: bevacizumab 5 mg/kg i.p. once a week; cisplatin 5 mg/kg i.v. once a week; paclitaxel 12.5 mg/kg i.v. once a week; gemcitabine 60 mg/kg i.p. twice a week
Experimental: In the FIGURE, the horizontal axis represents the number of days elapsed after the transplantation of the cells, and the vertical axis represents the tumor volume and the body weight change rate. Control represents control groups to which a solvent is administered and combo represents combined use groups.

Compound	change in tumor volume during administration alone
N.N.[Cl][Pt][Cl] [cisplatin]	No significant change in tumor volume
bevacizumab: anti-human VEGF antibody	increases in tumor volume were observed
CC(=O)O[C@H]1C(=O)[C@@]2(C)[C@H]([C@H](OC(=O)c3ccccc3)[C@]3(O)C[C@H](OC(=O)[C@H](O)[C@@H](NC(=O)c4ccccc4)c4ccccc4)C(C)=C1C3(C)C)[C@]1(OC(C)=O)CO[C@@H]1C[C@@H]2O [paclitaxel]	No significant change in tumor volume
Nc1ccn([C@@H]2O[C@H](CO)[C@@H](O)C2(F)F)c(=O)n1 [gemcitabine]	No significant change in tumor volume
